In patent US12600709B2, “Nonpeptide somatostatin type 5 receptor agonists and uses thereof” (Crinetics Pharmaceuticals, Inc., priority 2019, dated 2026):

Biological target: T1, human somatostatin receptor subtype 5 (Homo sapiens, UniProt P35346)
T1 construct: expressed in transfected cells
Assay: cAMP assay for SST5R (inhibition of cAMP in CHO-K1 cells)
Format: cell-based
Conditions: Table A; inhibition of cAMP via human SST5 receptor; read-out: SST5 potency
Description: General overview: All five SSTR subtypes are Gi coupled G-protein coupled receptors (GPCRs) that lead to decreases in intracellular cyclic AMP (cAMP) when activated by an agonist. Therefore, measurement of intracellular cAMP levels can be used to assess whether compounds of the invention are agonists of SSTR subtypes (John Kelly, Troy Stevens, W. Joseph Thompson, and Roland Seifert, Current Protocols in Pharmacology, 2005, 2.2.1-2.2). One example of an intracellular cAMP assay is described below.
cAMP Assay Protocol for SST5R:
Four days prior to the assay, 2,000 Chinese hamster ovary cells (CHO-K1, ATCC #CCL-61) stably expressing the human somatostatin receptor subtype 5 are plated in each well of a 96-well tissue culture-treated plate in Ham's F12 growth media (ThermoFisher #10-080-CM) supplemented with 10% donor bovine serum (Gemini Bio-Products #100-506), 100 U/mL penicillin; 100 µg/mL streptomycin; 2 mM L-glutamine (Gemini Bio-Products #400-110) and 0.25 mg/mL G418 Sulfate (GoldBio #108321-42-2). The cells are cultured at 37° C., 5% CO2 and 95% humidity. On the day of the assay, the media is aspirated and the cells are treated with 50 μL of 1.6 μM NKH477 (Sigma #N3290) plus various dilutions of compounds of the invention in assay buffer [1× Hank's Balanced Salt Solution (ThermoFisher #SH3058802), 0.5 mM HEPES pH 7.4, 0.1% bovine serum albumin, 0.2 mM 3-Isobutyl-1-methylxanthine (IBMX, VWR #200002-790)]. The cells are incubated for 20 minutes at 37° C. […] The cells are treated with 50 μL of lysis buffer (HRTF cAMP kit, Cisbio) for 30 minutes and then the lysate is diluted to 250 μL with assay buffer. The lysate is transferred to 384-well plates and cAMP detection and visualization antibodies are added and incubated for 1-24 hours at room temperature. The time-resolved fluorescent signal is read with a Tecan M1000Pro multiplate reader. The intracellular cAMP concentrations are calculated by regression to a standard curve and are plotted vs. the concentration of the compounds of the invention and the EC50 of the compounds are calculated using standard methods. All data manipulations are in GraphPad Prism v6 or v7.

T1 sequence (P35346 whole entry): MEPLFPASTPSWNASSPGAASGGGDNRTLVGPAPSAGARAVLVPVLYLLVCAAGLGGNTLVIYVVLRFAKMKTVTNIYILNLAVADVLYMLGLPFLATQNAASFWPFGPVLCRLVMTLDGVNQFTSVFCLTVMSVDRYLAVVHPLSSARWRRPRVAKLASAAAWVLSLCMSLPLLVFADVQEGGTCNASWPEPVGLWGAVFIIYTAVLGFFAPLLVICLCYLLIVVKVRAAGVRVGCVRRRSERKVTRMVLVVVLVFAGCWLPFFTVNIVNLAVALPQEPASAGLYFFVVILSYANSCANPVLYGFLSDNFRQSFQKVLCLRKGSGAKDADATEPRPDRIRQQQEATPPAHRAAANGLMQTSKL

| Structure (SMILES) | EC50 [nM] |
| --- | --- |
| N[C@@H]1CN(c2c(C(=O)NC34CC(C3)C4)cncc2-c2cc(F)cc(F)c2)C[C@H]1F [1-37, 4-[(3R,4R)-3-amino-4-fluoropyrrolidin-1-yl]-N-{bicyclo[1.1.1]pentan-1-yl}-5-(3,5-difluorophenyl)pyridine-3-carboxamide] | 10 to 100 |
| C[C@H](NC(=O)c1cnc(C#N)c(-c2cnoc2)c1N1CC[C@](C)(N)C1)C1CC1 [1-134, 4-[(3S)-3-amino-3-methylpyrrolidin-1-yl]-6-cyano-N-[(1S)-1-cyclopropylethyl]-5-(1,2-oxazol-4-yl)pyridine-3-carboxamide] | < 10 |
| C[C@H](NC(=O)c1cnc(C#N)c(-c2cc(F)cc(Cl)c2)c1N1C[C@H](N)[C@@H](F)C1)C1CC1 (single isomer, unassigned) [1-139] | < 10 |
| Cc1ncc(C(=O)N[C@@H](C)C(F)(F)F)c(N2CC[C@](C)(N)C2)c1-c1cc(F)cc(F)c1 [1-147, 4-[(3S)-3-amino-3-methylpyrrolidin-1-yl]-5-(3,5-difluorophenyl)-6-methyl-N-[(2S)-1,1,1-trifluoropropan-2-yl]pyridine-3-carboxamide] | < 10 |
| COc1ncc(C(=O)NC2CCC(F)(F)CC2)c(N2CC[C@H](N)C2)c1-c1cc(F)cc(F)c1 [1-150, 4-[(3S)-3-aminopyrrolidin-1-yl]-N-(4,4-difluorocyclohexyl)-5-(3,5-difluorophenyl)-6-methoxypyridine-3-carboxamide] | < 10 |
| CC(CC(F)(F)F)NC(=O)c1cncc(-c2cc(F)cc(F)c2)c1N1CC[C@](C)(N)C1 (stereo partly drawn) [1-60, 4-[(3S)-3-amino-3-methylpyrrolidin-1-yl]-5-(3,5-difluorophenyl)-N-(4,4,4-trifluorobutan-2-yl)pyridine-3-carboxamide] | < 10 |
| Cc1cccc2[nH]c(-c3cncc(C(=O)N(C)C4CCCC4)c3N3CC[C@](C)(N)C3)nc12 [2-16, 4-[(3S)-3-amino-3-methylpyrrolidin-1-yl]-N-cyclopentyl-N-methyl-5-(4-methyl-1H-1,3-benzodiazol-2-yl)pyridine-3-carboxamide] | < 10 |
| CC(C)(C)NC(=O)c1cncc(-c2cc(F)cc(F)c2)c1N1CC[C@](C)(N)C1 [1-29, 4-[(3S)-3-amino-3-methylpyrrolidin-1-yl]-N-tert-butyl-5-(3,5-difluorophenyl)pyridine-3-carboxamide] | 10 to 100 |
| Cc1cccc2[nH]c(-c3cncc(C(=O)NCCO)c3N3CC[C@](C)(N)C3)nc12 [2-9, 4-[(3S)-3-amino-3-methylpyrrolidin-1-yl]-N-(2-hydroxyethyl)-5-(4-methyl-1H-1,3-benzodiazol-2-yl)pyridine-3-carboxamide] | 100 to 1000 |
| CC(C)C(C)NC(=O)c1cncc(-c2cc(F)cc(F)c2)c1N1CC[C@](C)(N)C1 (stereo partly drawn) [1-38, 4-[(3S)-3-amino-3-methylpyrrolidin-1-yl]-5-(3,5-difluorophenyl)-N-(3-methylbutan-2-yl)pyridine-3-carboxamide] | < 10 |
| Cc1ncc(C(=O)NCC2(O)CCCC2)c(N2CC[C@](C)(N)C2)c1-c1cc(F)cc(F)c1 [1-223, 4-[(3S)-3-amino-3-methylpyrrolidin-1-yl]-5-(3,5-difluorophenyl)-N-[(1-hydroxycyclopentyl)methyl]-6-methylpyridine-3-carboxamide] | 10 to 100 |
| C[C@H](NC(=O)c1cnc(C(F)(F)F)c(-c2cc(F)cc(F)c2)c1N1CC[C@](C)(N)C1)C1CC1 [1-189, 4-[(3S)-3-amino-3-methylpyrrolidin-1-yl]-N-[(1S)-1-cyclopropylethyl]-5-(3,5-difluorophenyl)-6-(trifluoromethyl)pyridine-3-carboxamide] | < 10 |
| Cc1cccc2[nH]c(-c3cncc(C(=O)N(C)C4CC4)c3N3CC[C@](C)(N)C3)nc12 [2-22, 4-[(3S)-3-amino-3-methylpyrrolidin-1-yl]-N-cyclopropyl-N-methyl-5-(4-methyl-1H-1,3-benzodiazol-2-yl)pyridine-3-carboxamide] | 10 to 100 |
| C[C@]1(N)CCN(c2c(C(=O)N[C@H]3C[C@H](F)C3)cncc2-c2cc(F)cc(F)c2)C1 [1-55] | < 10 |
